Data: US9446011B2, “Anticonvulsant combination therapy” (UCB Pharma GmbH, priority 2006, dated 2016)
“Also recorded” adds a separate entry of the source.

How the values were obtained:
[1] = Clinical population pharmacokinetic analysis
[2] = test system: pattern of neuronal activation; details: 2-deoxy glucose technique; cited from earlier work
[3] = test system: lithium-pilocarpine-induced status epilepticus; details: in vivo; cited from earlier work
NMDA-evoked currents = details: cell/tissue culture; cited from earlier work
sound-induced seizure = details: mouse, in vivo; cited from earlier work
[4] = test system: maximal electroshock seizure [MES]; details: in vivo; cited from earlier work
[5] = test system: cobalt-homocysteine-induced status epilepticus; details: in vivo; cited from earlier work
GABA currents = details: mouse cortical neurons; cited from earlier work
glutamate transmission = details: mouse cortical neurons; cited from earlier work
[6] = test system: neurotransmitter receptors or ion channels; details: more than 100 different sites; cited from earlier work
[7] = target: collapsing response mediator protein CRMP-2 (Homo sapiens, UniProt Q16555); assay: Modulation of CRMP-2; details: recent data
motor coordination = assay: Rotarod test; type: in vivo, mice; details: drug alone at pharmacological doses
Procedure: The impaired motor function was quantified by the rotarod test in mice according to Dunham and Miya (1957). The rotarod test was undertaken by use of a rod of 3 cm diameter, rotating at constant speed of 6 rpm. In this test, an acute neurological deficit (adverse effects produced by AEDs) was indicated by the inability of the animals to maintain their equilibrium for at least 120 s on the rotating rod. The dose ratio assessed in this model was always 1:1. For comparison, each AED was tested alone at its ED50 and 50% of its ED50 in the 6 Hz model.

[8] = test system: voltage gated sodium channels; assay: Voltage gated sodium channels in cell/tissue culture; type: cell-based; details: recent data
[9] = test system: 6 Hz refractory seizure model; details: in vivo; cited from earlier work
[10] = test system: refractory self-sustaining status epilepticus; details: in vivo; cited from earlier work
6 Hz-induced seizures = assay: 6 Hz seizure test in mice with isobolographic analysis; details: for anticonvulsant effects against 6 Hz seizure: drug administered alone, i.p., mice; for doses for antiseizure effect compared with those needed in the MES test: MES data obtained in other studies
[11] = test system: voltage gated sodium channels; details: cell/tissue culture; cited from earlier work
epileptic seizures = assay: ED50 values in various models of the rat and the mouse; type: in vivo; details: i.p.
Procedure: The skilled person may determine the ED50 values by methods known in the art. It is preferred that the ED50 values are determined by preclinical or/and clinical trials. Published ED50 values may also be used. […] FIGS. 12 and 13 disclose specific ED50 values obtained in various models of the rat and the mouse. A person skilled in the art knows that in a particular model, among different species, ED50 values show a variation by a factor of up to 5 or even larger.

## COC[C@@H](NC(C)=O)C(=O)NCc1ccccc1 [LCM, R-2-acetamido-N-benzyl-3-methoxypropionamide]
[1]
  effect on plasma levels of AEDs or vice versa: no evidence for any effect
[2]
  effect on basal patterns: no effect
  effect on the pattern of neuronal activation by 6 Hz induced seizures: attenuated
[3]
  activity against status epilepticus: effective
NMDA-evoked currents
  effects on NMDA-evoked currents: no effects
sound-induced seizure
  anticonvulsant activity: anticonvulsant activity has been shown
[4]
  anticonvulsant activity: anticonvulsant activity has been shown
[5]
  activity against status epilepticus: effective
GABA currents
  effect on GABA currents: increased GABA currents
Glutamate transmission
  effect on glutamate transmission: inhibited glutamate transmission indirectly
[6]
  binding: neither LCM nor its metabolites bind
[7]
  effect on CRMP-2: modulates
Motor coordination
  rotarod performance: did not impair rotarod performance
[8]
  slow inactivation of voltage-gated sodium channels: enhances slow inactivation
[9]
  anticonvulsant activity: anticonvulsant activity has been shown
[10]
  activity against status epilepticus: active
6 Hz-induced seizures; 6 Hz model, drugs alone
  potency compared to the other tested AEDs: highest potency
6 Hz-induced seizures
  anticonvulsant effects against 6 Hz seizure: dose-dependent anticonvulsant effects; also recorded: fully protected
[11]
  effects at voltage gated sodium channels: no effects

## CC1(C)O[C@@H]2[C@@H](CO[C@@]3(COS(N)(=O)=O)OC(C)(C)O[C@@H]23)O1 [TPM, topiramate]
6 Hz-induced seizures
  doses for antiseizure effect compared with those needed in the MES test: significantly higher doses
  anticonvulsant effects against 6 Hz seizure: dose-dependent anticonvulsant effects

## Nc1nnc(-c2cccc(Cl)c2Cl)c(N)n1 [LTG, lamotrigine]
Epileptic seizures
  ED50: about 85 mg/kg body weight
6 Hz-induced seizures
  doses for antiseizure effect compared with those needed in the MES test: significantly higher doses
  anticonvulsant effects against 6 Hz seizure: dose-dependent anticonvulsant effects

## NC(=O)N1c2ccccc2C=Cc2ccccc21 [CBZ, carbamazepine]
6 Hz-induced seizures
  doses for antiseizure effect compared with those needed in the MES test: significantly higher doses
  anticonvulsant effects against 6 Hz seizure: dose-dependent anticonvulsant effects

## O=C1NC(=O)C(c2ccccc2)(c2ccccc2)N1 [PHT, phenytoin]
6 Hz-induced seizures
  doses for antiseizure effect compared with those needed in the MES test: significantly higher doses
  anticonvulsant effects against 6 Hz seizure: dose-dependent anticonvulsant effects

## NCC1(CC(=O)O)CCCCC1 [GBP, gabapentin]
6 Hz-induced seizures
  doses for antiseizure effect compared with those needed in the MES test: significantly higher doses
  anticonvulsant effects against 6 Hz seizure: dose-dependent anticonvulsant effects

## CC[C@@H](C(N)=O)N1CCCC1=O [LEV, levetiracetam]
Epileptic seizures
  ED50: about 20 mg/kg body weight
[9]
  protection in the 6 Hz model: complete protection
6 Hz-induced seizures
  anticonvulsant effects against 6 Hz seizure: dose-dependent anticonvulsant effects
